Reference: the supplement of paper PMC9938120

Experiments:
Assay in all cases: drug sensitivity score (DSS3, normalised partial AUC of % inhibition dose-response) (DSS (score)); higher = more sensitive (stronger inhibition of viability); extreme values may be limits of the assay
FMOC14 = patient-derived high-grade serous ovarian cancer cells; conditions: 72 h; library: FO5A; assay format: 2D, 384-well, CellTiter-Glo
Procedure, shortened: (§1)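 Early-passage (under 10) patient-derived ovarian cancer cells were dispensed onto 384-well flat clear-bottom plates pre-plated with compounds at five concentrations spanning a 10,000-fold range, then incubated 72 h at 37 °C, 5% CO2. Viability was read with CellTiter-Glo, and the data were processed in Breeze. The drug sensitivity score is a partial area under the percent-inhibition dose-response curve divided by the log of the upper asymptote, with higher values meaning greater sensitivity.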

FMOC22 = patient-derived mucinous ovarian cancer cells; conditions: 72 h; library: FO5A; assay format: 2D, 384-well, CellTiter-Glo
Procedure, shortened: as §1

FMOC28 = patient-derived low-grade serous ovarian cancer cells; conditions: 72 h; library: FO5A; assay format: 2D, 384-well, CellTiter-Glo
Procedure, shortened: as §1

FMOC17 = patient-derived low-grade serous ovarian cancer cells; conditions: 72 h; library: FO5A; assay format: 2D, 384-well, CellTiter-Glo
Procedure, shortened: as §1

FMOC04 = patient-derived high-grade serous ovarian cancer cells; conditions: 72 h; library: FO5A; assay format: 2D, 384-well, CellTiter-Glo
Procedure, shortened: as §1

FMOC25_2 = patient-derived low-grade serous ovarian cancer cells; conditions: 72 h; library: FO5A; assay format: 2D, 384-well, CellTiter-Glo
Procedure, shortened: as §1

FMOC02_2 = patient-derived low-grade serous ovarian cancer cells; conditions: 72 h; library: FO5A; assay format: 2D, 384-well, CellTiter-Glo
Procedure, shortened: as §1

FMOC03 = patient-derived mucinous ovarian cancer cells; conditions: 72 h; library: FO5A; assay format: 2D, 384-well, CellTiter-Glo
Procedure, shortened: as §1

FMOC24 = patient-derived high-grade serous ovarian cancer cells; conditions: 72 h; library: FO5A; assay format: 2D, 384-well, CellTiter-Glo
Procedure, shortened: as §1

FMOC27 = patient-derived low-grade serous ovarian cancer cells; conditions: 72 h; library: FO5A; assay format: 2D, 384-well, CellTiter-Glo
Procedure, shortened: as §1

FMOC02_1 = patient-derived low-grade serous ovarian cancer cells; conditions: 72 h; library: FO5A; assay format: 2D, 384-well, CellTiter-Glo
Procedure, shortened: as §1

FMOC06 = patient-derived mucinous ovarian cancer cells; conditions: 72 h; library: FO5A; assay format: 2D, 384-well, CellTiter-Glo
Procedure, shortened: as §1

FMOC25_1 = patient-derived low-grade serous ovarian cancer cells; conditions: 72 h; library: FO4B; assay format: 2D, 384-well, CellTiter-Glo
Procedure, shortened: as §1

FMOC09 = patient-derived high-grade serous ovarian cancer cells; conditions: 72 h; library: FO5A; assay format: 2D, 384-well, CellTiter-Glo
Procedure, shortened: as §1

FMOC02_3 = patient-derived low-grade serous ovarian cancer cells; conditions: 72 h; library: FO5A; assay format: 2D, 384-well, CellTiter-Glo
Procedure, shortened: as §1

FMOC11 = patient-derived high-grade serous ovarian cancer cells; conditions: 72 h; library: FO5A; assay format: 2D, 384-well, CellTiter-Glo
Procedure, shortened: as §1

Row | SMILES | drug sensitivity score (FMOC14) | drug sensitivity score (FMOC22) | drug sensitivity score (FMOC28) | drug sensitivity score (FMOC17) | drug sensitivity score (FMOC04) | drug sensitivity score (FMOC25_2) | drug sensitivity score (FMOC02_2) | drug sensitivity score (FMOC03) | drug sensitivity score (FMOC24) | drug sensitivity score (FMOC27) | drug sensitivity score (FMOC02_1) | drug sensitivity score (FMOC06) | drug sensitivity score (FMOC25_1) | drug sensitivity score (FMOC09) | drug sensitivity score (FMOC02_3) | drug sensitivity score (FMOC11)
1 | C[C@]12CC[C@H](O)CC1=CC[C@@H]1[C@@H]2CC[C@]2(C)C(c3cccnc3)=CC[C@@H]12 [Abiraterone] | 2.3 | 0 | 0.6 | 0 | 0.05 | 0.6 | 1.3 | 0 | 4.9 | 0 | 0 | 0.1 | 0.3 | 0 | 0 | 0
2 | CS(=O)(=O)c1ccc(C(=O)Nc2ccc(Cl)c(-c3ccccn3)c2)c(Cl)c1 [Vismodegib] | 0 | 0 | 0 | 0 | 0 | 0 | 0.4 | 0.6 | 1.95 | 0.8 | 0 | 0.3 | 0 | 0 | 0 | 0
3 | COc1ccc(COc2cc3oc(=O)c4cc(C(C)O)ccc4c3cc2OC)cc1 (centres undefined) [Palomid-529] | 0 | 0 | 1.4 | 0 | 0 | 0.1 | 2.2 | 0 | 0 | 0 | 0 | 0 | 0 | 0.4 | 0 | 0.4
4 | N#Cc1ccc(C(c2ccc(C#N)cc2)n2cncn2)cc1 [Letrozole] | 0 | 0 | 0 | 0 | 0 | 0 | 0 | 0 | 0 | 0 | 0 | 0 | 0 | 0 | 0 | 0
5 | CC1=C(/C=C/C(C)=C/C=C/C(C)=C/C(=O)O)C(C)(C)CCC1 [Tretinoin] | 0 | 0 | 0 | 0 | 0 | 0.2 | 0 | 0 | 0 | 0 | 0 | 0.1 | 0 | 0 | 5.2 | 2
6 | Cc1cc(C(C)Nc2ccccc2)c2nc(N3CCOCC3)cc(=O)n2c1 (centres undefined) [TGX-221] | 0 | 0 | 0 | 2.4 | 0.35 | 2.6 | 3.3 | 1 | 0.75 | 2 | 2 | 1.1 | 1.7 | 0 | 0.8 | 0.3
7 | C=CCN(/C=C1/C(=O)O[C@H](COC)[C@@]2(C)C1=C(O)C(=O)C1=C2[C@H](OC(C)=O)C[C@]2(C)C(=O)CC[C@@H]12)CC=C [Sonolisib] | 0 | 0 | 0.4 | 0 | 0 | 0 | 0.3 | 0 | 0.25 | 0 | 0 | 0 | 0 | 0 | 0.4 | 0
8 | COc1cc2c(NC3CCN(C(C)C)CC3)nc(N3CCC(F)(F)CC3)nc2cc1OCCCN1CCCC1 [UNC0642] | 0.1 | 0.1 | 0 | 2.1 | 1.2 | 0.7 | 1.1 | 0 | 4.3 | 0 | 4 | 0.2 | 0 | 0.2 | 2.3 | 2.3
9 | NC[C@@](O)(c1ccc(Cl)cc1)c1ccc(-c2cn[nH]c2)cc1 | 0 | 1.1 | 2.8 | 0 | 0 | 0.4 | 0.4 | 0.3 | 4.55 | 0 | 4.1 | 1.5 | 2.8 | 2.6 | 0 | 2.8
10 | CC(C)C(=O)Nc1ccc([N+](=O)[O-])c(C(F)(F)F)c1 [Flutamide] | 0 | 0 | 0 | 0 | 0.05 | 0 | 0 | 0 | 2.1 | 0 | 0 | 0 | 0 | 0 | 0 | 0
11 | CC[C@@H]1C(=O)OC[C@@H]1Cc1cncn1C [Pilocarpine] | 0 | 0 | 0 | 0 | 0 | 0 | 0.3 | 0 | 2.65 | 0 | 0 | 0 | 0 | 0 | 0 | 0
12 | O=C(O)c1ccc(CN2CCC(CN[C@@H]3C[C@H]3c3ccccc3)CC2)cc1 | 0 | 0 | 0 | 0 | 0.4 | 0 | 0 | 0 | 0.9 | 0 | 0.4 | 0 | 0 | 0 | 1.6 | 0
13 | CC1CCC(n2c3cnccc3c3cnc(Nc4ccc5c(n4)CCN(C(=O)CO)C5)nc32)CC1 (centres undefined) [AMG-925] | 0 | 0.2 | 0 | 0 | 0 | 0.5 | 0 | 0 | 0 | 0.9 | 0 | 0 | 0.7 | 0 | 1.3 | 0
14 | CC[C@H](CO)Nc1nc(NCc2ccccc2)c2ncn(C(C)C)c2n1 [Seliciclib] | 1.5 | 0 | 1.2 | 1.4 | 0.1 | 2.1 | 4.3 | 1.5 | 1.35 | 0 | 4.1 | 0.1 | 0.9 | 0 | 3.5 | 0
15 | CCCCNc1ncc(C(=O)NCc2ccc(-n3ccnc3)cc2)c(NC2CCC(O)CC2)n1 (centres undefined) [UNC2881] | 0 | 0.4 | 1.5 | 1.3 | 0 | 1.8 | 2.2 | 0.2 | 0.4 | 0 | 1.4 | 0 | 0 | 0 | 2.5 | 0
16 | N#Cc1ccc2[nH]c(O)c(-c3ccc(CN4CCOCC4)cn3)c2c1 [AZD-1080] | 0 | 0 | 0 | 0.4 | 0.15 | 5.3 | 0 | 0 | 1.15 | 0 | 1.4 | 0 | 0 | 0 | 5.1 | 0
17 | C[C@H](Nc1ncnc2nc[nH]c12)c1cc2cccc(Cl)c2c(=O)n1-c1ccccc1 [Duvelisib] | 0 | 0 | 0 | 0.5 | 0 | 0 | 0.1 | 0 | 0.65 | 0.1 | 0 | 1 | 0 | 0 | 0 | 0.7
18 | O=C(CCCCCCNC(=O)c1cnc(N(c2ccccc2)c2ccccc2)nc1)NO [Rocilinostat] | 4.5 | 4.3 | 0.9 | 0.7 | 3.2 | 6.7 | 3 | 5.1 | 5.4 | 4.8 | 4.9 | 3.5 | 2.4 | 0.8 | 5.2 | 4.3
19 | CC(C)n1cnc2c(NCCc3ccc(O)cc3)nc(-c3csc4ccccc34)nc21 [StemRegenin 1] | 0.6 | 2.7 | 2.9 | 6.8 | 1.95 | 6.1 | 6 | 4.8 | 6.15 | 6.9 | 4.2 | 4.5 | 1.6 | 0.3 | 4.7 | 1
20 | CC[C@H](Nc1ncnc2[nH]cnc12)c1nc2cccc(F)c2c(=O)n1-c1ccccc1 [Idelalisib] | 0 | 0.1 | 3.3 | 2.8 | 0.1 | 1.1 | 2.4 | 0.4 | 0 | 0.4 | 2.3 | 2.7 | 1.4 | 2 | 3.7 | 1.9
21 | O=C(O)c1ccc(-c2c[nH]c3ncc(-c4ccccc4)cc23)cc1C1CCCC1 | 0 | 0.8 | 2.9 | 0 | 0 | 0.4 | 0 | 0.5 | 0.65 | 0 | 0 | 0 | 0 | 0 | 0 | 0
22 | C=CCc1cccc(/C=N/NC(=O)CN2CCN(Cc3ccccc3)CC2)c1O [PAC-1] | 5 | 3.5 | 7.1 | 1.3 | 0 | 2.1 | 3.6 | 5.6 | 1.2 | 0 | 0 | 3.7 | 0.4 | 4.8 | 0 | 3.1
23 | CNc1nc(-c2ccc3c(N)n[nH]c3c2)cc(N2C[C@@H](C(=O)NC3CCCCC3)CC[C@H]2C)n1 | 0.6 | 0 | 6 | 0 | 0.5 | 5.7 | 8.7 | 0 | 0 | 1.4 | 3.8 | 4.2 | 6.9 | 0 | 0.8 | 0
24 | NCCNc1ccc(NCCN)c2c1C(=O)c1ccncc1C2=O [Pixantrone] | 0 | 0 | 1.6 | 0.9 | 0.2 | 1.8 | 0 | 0 | 0 | 0 | 0 | 0 | 0.7 | 0 | 1.5 | 1.7
